This is an account of results in PubChem BioAssay (NCI).

What all share (assay): inhibition of tumour cell growth, NCI panel, 48 h
Assay [1] deals with BT-549 breast.
In assay [2] the test system is CAKI-1 renal.
Assay [3] deals with COLO 205 colon.
The test system of assay [4] is IGROV1 ovarian.
Assay [5] has as its system MALME-3M melanoma.
Assay [6] deals with MCF7 breast.
Assay [7] concerns NCI-H522 lung.
The subject of assay [8] is SN12C renal.
The test system of assay [9] is SNB-75 CNS.
Assay [10] relates to U251 CNS.

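Following 48 hours of exposure in 96-well plates, responses at five concentrations were used to interpolate endpoints linearly. GI50 marks 50% less growth. TGI denotes the concentration required for complete inhibition of growth.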

With `Cn1cc(C2=C(c3cn(CCCCCO)c4ccccc34)C(=O)NC2=O)c2ccccc21`, the GI50 in [1] was 4 µM; in assay [2], 6.34 µM; in assay [3], 3.89 µM; in [4], 8.04 µM; in assay [5] it was 6.9 µM; in assay [6], 3.56 µM. Also, the GI50 in assay [7] was 2.27 µM; in assay [8], 5.55 µM; in [9] it was 1.21 µM; in [10], 5.98 µM. The TGI in [1] is 10.9 µM; in assay [2], over 23.3 µM; in assay [3], 11.4 µM; in assay [4], 17.9 µM; in assay [5] it was 16.3 µM; in [6] it was over 22.5 µM. The TGI is 10.6 µM in assay [7], 19.5 µM in [8], 8.9 µM in [9] and over 17.3 µM in assay [10].

`COc1cc2nc3cc([N+](=O)[O-])ccc3c(NCCNCC(C)O)c2cc1OC` (configuration not stated): the GI50 is 1.75 µM in [1]; 2.5 µM in [2]; 0.368 µM in [3]; 0.495 µM in assay [4]; 0.785 µM in [5]; 0.332 µM in [6]. Also, the GI50 in assay [7] is 0.224 µM; in [9], 0.675 µM; in [10], 0.442 µM. Further, the TGI in [1] came out at 3.9 µM; in assay [2], 10.9 µM; in assay [3], 1.57 µM; in assay [4], 2.26 µM; in [5], 2.25 µM; in assay [6] it was 1.57 µM. The TGI in assay [7] turned out to be 1.06 µM; in assay [9] it was 2.07 µM; in assay [10], 2.26 µM.

Take `O=C1CC(N2C(=O)/C(=C/C(Cl)=C\c3ccc([N+](=O)[O-])cc3)SC2=S)C(=O)N1c1ccc(O)cc1` (configuration not stated): the GI50 in assay [1] is 2.03 µM; in assay [2] it was 1.15 µM; in assay [3], 1.83 µM; in [4], 1.2 µM; in assay [5], 2.31 µM; in [6], 1.21 µM. For the same compound, the results for the GI50 in [7], in assay [8] and in assay [10] were 1.86 µM, 1.6 µM and 0.597 µM, respectively. The TGI was determined as 4.21 µM in assay [1]; 2.42 µM in assay [2]; 5.04 µM in assay [3]; 2.68 µM in assay [4]; 5.79 µM in assay [5]; 10.7 µM in [6]. Moreover, the TGI in assay [7] was found to be 4.23 µM; in assay [8], 5.88 µM; in assay [10], 2.21 µM.

Turning to `O=C(O)Cc1ccc(N=Nc2c(O)c(C(=O)O)cc3ccccc23)cc1`, the TGI in assay [1], in assay [2], in assay [3], in [4], in assay [5] and in assay [6] was over 100 µM in each case. Also, the TGI in [8], in assay [9] and in assay [10] was over 100 µM in each case.

In the case of `O=S(=O)(NCCCNc1cc(-c2cn(-c3ccccc3)nc2-c2cccc(O)c2)ccn1)c1ccc(Br)cc1`, the GI50 is 1.68 µM in [1]; 2.25 µM in [2]; 1.65 µM in assay [3]; 3.58 µM in assay [4]; 1.76 µM in [6]; 2.11 µM in assay [7]. In addition, the GI50 in [8] was 2.75 µM; in assay [9] it was 1.22 µM; in [10] it was 1.21 µM. The TGI was 4.32 µM in [1]; 12.6 µM in [2]; 3.4 µM in assay [3]; 29 µM in assay [4]; 5.16 µM in [6]; 4.85 µM in assay [7]. The figures for the TGI in assay [8], in assay [9] and in assay [10] were 9.8 µM, 7.81 µM and 4.44 µM, respectively.

In the case of `Oc1ccccc1/C=N\NC(=S)N/N=C/c1ccccc1O`, the GI50 in assay [1] was 13.9 µM; in assay [2] it was 0.548 µM; in assay [3] it was 4.23 µM; in assay [4], 1.53 µM; in [6] it was 2.38 µM; in assay [7], 5.76 µM. Further, the GI50 in assay [8] is 3.09 µM; in [9], 2.24 µM; in assay [10], 1.07 µM. The TGI is over 100 µM in assay [1]; 3.94 µM in assay [2]; 18.9 µM in [3]; 16.2 µM in assay [4]; 40.3 µM in [6]; 36.5 µM in assay [7]. Moreover, the values for the TGI in assay [8], in [9] and in assay [10] were 79.5 µM, 38.2 µM and over 100 µM, respectively.

Turning to `COc1ccc(NC(=O)c2ccc(NC3=C(Cl)C(=O)N(Cc4ccccc4)C3=O)cc2)c(OC)c1`, the GI50 in [1] was 13.1 µM; in [2] it was 0.637 µM; in assay [3], 44.4 µM; in assay [4], 10.8 µM; in [6], 33.7 µM; in assay [7], 19 µM. For the same compound, the GI50 in assay [8] is 29.2 µM; in assay [9], 47.1 µM; in [10] it was 27.2 µM. The TGI in assay [1] was 45 µM; in assay [2], 1.96 µM; in assay [3], over 100 µM; in assay [4], 73.8 µM; in [6], over 100 µM; in assay [7], 68.9 µM. Further, the TGI in assay [8] was 83.5 µM; in assay [9], over 100 µM; in assay [10] it was 86.3 µM.

`NCCSC(c1ccccc1)(c1ccccc1)c1ccccc1`: the GI50 was 3.51 µM in [1]; 3.51 µM in assay [2]; 0.435 µM in [3]; 1.25 µM in assay [4]; 0.354 µM in [6]; 0.369 µM in assay [7]. The GI50 in [8] is 0.739 µM; in assay [9] it was 1.73 µM; in assay [10], 0.373 µM. Further, the TGI is 14.2 µM in assay [1]; 16.1 µM in [2]; 1.69 µM in assay [3]; 8.32 µM in assay [4]; 1.78 µM in [6]; 1.7 µM in assay [7]. Besides, the TGI worked out at 11.7 µM in [8], 5.31 µM in [9] and 1.72 µM in assay [10].
